US9233964B2, “Sulfamide piperazine derivatives as protein tyrosine kinase inhibitors and pharmaceutical use therof” (LEO PHARMA A/S, priority 2011, dated 2016)

How the values were obtained:
Format in all cases: biochemical
[1] = biological target: T1, JAK1 (Homo sapiens, UniProt P23458); assay: JAK kinase assay (HTRF, phosphorylation of synthetic peptide), JAK1; settings: catalytic domain, ATP at Km (7 μM); read-out: JAK1 kinase inhibitory activity (EC50)
T1 construct: JAK1 (aa 850-1154) and TYK2 (aa 871-1187) are expressed with an N-terminally fused GST-tag; GST (N); purchased Carna Biosciences, Inc; host or cells: baculovirus expression system
In short: (§1)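 Catalytic-domain human JAK1 (GST-tagged, aa 850-1154) or His-tagged JAK2, baculovirus-expressed, phosphorylated 1 µM biotinylated TK peptide at Km ATP (JAK1 7 µM, 10 mM MgCl2, 50 nM SEB; JAK2 4 µM, 5 mM MgCl2) in pH 7.0 Hepes, 20-30 min RT. EDTA stop; overnight streptavidin-XL665/cryptate HTRF read.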

[2] = biological target: T2, JAK2 (Homo sapiens, UniProt O60674); assay: JAK kinase assay (HTRF, phosphorylation of synthetic peptide), JAK2; settings: catalytic domain, ATP at Km (4 μM); read-out: JAK2 kinase inhibitory activity (EC50)
T2 construct: All four purified enzymes contain only the catalytic domain; His (N); purchased Carna Biosciences, Inc; host or cells: baculovirus expression system
In short: as §1

[3] = biological target: T3, JAK3 (Homo sapiens, UniProt P52333); assay: JAK kinase assay (HTRF, phosphorylation of synthetic peptide), JAK3; settings: catalytic domain, ATP at Km (2 μM); read-out: JAK3 kinase inhibitory activity (EC50)
T3 construct: All four purified enzymes contain only the catalytic domain; His (N); purchased Carna Biosciences, Inc; host or cells: baculovirus expression system

[4] = biological target: T4, TYK2 (Homo sapiens, UniProt P29597); assay: JAK kinase assay (HTRF, phosphorylation of synthetic peptide), TYK2; settings: catalytic domain, ATP at Km (13 μM); read-out: TYK2 kinase inhibitory activity (EC50)
T4 construct: JAK1 (aa 850-1154) and TYK2 (aa 871-1187) are expressed with an N-terminally fused GST-tag; GST (N); purchased Carna Biosciences, Inc; host or cells: baculovirus expression system
T4 sequence (P29597 871-1187): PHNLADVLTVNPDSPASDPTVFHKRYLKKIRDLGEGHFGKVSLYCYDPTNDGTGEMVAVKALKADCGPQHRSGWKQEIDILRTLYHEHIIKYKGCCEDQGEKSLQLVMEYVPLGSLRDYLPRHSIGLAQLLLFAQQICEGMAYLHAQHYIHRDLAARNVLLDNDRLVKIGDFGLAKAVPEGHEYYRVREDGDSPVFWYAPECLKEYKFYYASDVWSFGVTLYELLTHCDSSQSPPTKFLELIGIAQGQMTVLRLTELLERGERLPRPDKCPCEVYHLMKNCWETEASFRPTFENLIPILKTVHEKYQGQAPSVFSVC
In short: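 1 µM biotinylated TK peptide at Km ATP in pH 7.0 Hepes, 20-30 min RT. EDTA stop; overnight streptavidin-XL665/cryptate HTRF read.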

T1 sequence (P23458 850-1154): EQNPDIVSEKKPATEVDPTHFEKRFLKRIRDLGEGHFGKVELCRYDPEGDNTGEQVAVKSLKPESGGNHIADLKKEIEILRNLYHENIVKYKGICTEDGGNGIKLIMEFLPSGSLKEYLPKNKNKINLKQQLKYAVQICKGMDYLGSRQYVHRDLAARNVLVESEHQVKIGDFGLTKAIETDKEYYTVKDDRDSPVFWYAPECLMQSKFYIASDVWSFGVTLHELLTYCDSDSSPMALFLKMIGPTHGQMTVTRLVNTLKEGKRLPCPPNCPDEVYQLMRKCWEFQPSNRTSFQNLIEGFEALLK
T3 sequence (P52333 822-1111 limits assumed): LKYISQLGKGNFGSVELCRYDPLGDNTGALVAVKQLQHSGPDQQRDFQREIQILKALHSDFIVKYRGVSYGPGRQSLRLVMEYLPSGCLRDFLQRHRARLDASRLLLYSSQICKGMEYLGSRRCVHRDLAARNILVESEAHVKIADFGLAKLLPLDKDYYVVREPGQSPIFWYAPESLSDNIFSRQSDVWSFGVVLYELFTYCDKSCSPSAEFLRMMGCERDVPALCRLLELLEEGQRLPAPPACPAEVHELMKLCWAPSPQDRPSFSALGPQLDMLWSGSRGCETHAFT
T2 sequence (O60674 849-1124 limits assumed): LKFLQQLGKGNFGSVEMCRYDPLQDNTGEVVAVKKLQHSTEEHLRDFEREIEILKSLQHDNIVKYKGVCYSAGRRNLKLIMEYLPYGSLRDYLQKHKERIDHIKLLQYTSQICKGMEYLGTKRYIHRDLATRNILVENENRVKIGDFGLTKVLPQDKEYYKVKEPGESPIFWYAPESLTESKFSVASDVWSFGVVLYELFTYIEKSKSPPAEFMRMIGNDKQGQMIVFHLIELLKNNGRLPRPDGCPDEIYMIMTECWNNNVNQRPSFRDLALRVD

| Compound | EC50 [1] | EC50 [2] | EC50 [3] | EC50 [4] |
| --- | --- | --- | --- | --- |
| CN(CC1CC(F)(F)CN1)S(=O)(=O)N1CCN(c2ncnc3[nH]ccc23)CC12CC2 (centres unmarked) [Int 28] | < 100 nM | < 100 nM | < 100 nM | < 100 nM |
| CN(C(=O)CC1CCS(=O)(=O)CC1)S(=O)(=O)N1CCN(c2ncnc3[nH]ccc23)CC12CC2 [Example 136, 2-(1,1-dioxothian-4-yl)-N-methyl-N-[[5-(7H-pyrrolo[2,3-d]pyrimidin-4-yl)-5,8-diazaspiro[2.5]octan-8-yl]sulfonyl]acetamide] | < 100 nM | < 100 nM | 100 to 500 nM | > 500 nM |
| CN(CC1CCN(C(=O)CCO)C1)S(=O)(=O)N1CCN(c2ncnc3[nH]ccc23)CC12CC2 (centres unmarked) [Example 123, N-[[1-(3-hydroxypropanoyl)pyrrolidin-3-yl]methyl]-N-methyl-5-(7H-pyrrolo[2,3-d]pyrimidin-4-yl)-5,8-diazaspiro[2.5]octane-8-sulfonamide] | < 100 nM | < 100 nM | 100 to 500 nM | > 500 nM |
| CN(C[C@H]1CCCN1C(=O)CO)S(=O)(=O)N1CCN(c2ncnc3[nH]ccc23)CC12CC2 [Example 185, N-[[(2R)-1-(2-hydroxyacetyl)pyrrolidin-2-yl]methyl]-N-methyl-5-(7H-pyrrolo[2,3-d]pyrimidin-4-yl)-5,8-diazaspiro[2.5]octane-8-sulfonamide] | < 100 nM | < 100 nM | < 100 nM | < 100 nM |
| CN(CC1CCCC1)S(=O)(=O)N1CCN(c2ncnc3[nH]ccc23)CC12CC2 [Example 73, N-(cyclopentylmethyl)-N-methyl-5-(7H-pyrrolo[2,3-d]pyrimidin-4-yl)-5,8-diazaspiro[2.5]octane-8-sulfonamide] | < 100 nM | < 100 nM | < 100 nM | < 100 nM |
| CN(CC1CC1)S(=O)(=O)N1CCN(c2ncnc3[nH]ccc23)CC12CC2 [Example 59, N-(cyclopropylmethyl)-N-methyl-5-(7H-pyrrolo[2,3-d]pyrimidin-4-yl)-5,8-diazaspiro[2.5]octane-8-sulfonamide] | < 100 nM | < 100 nM | < 100 nM | < 100 nM |
| CN(CCn1cccc1)S(=O)(=O)N1CCN(c2ncnc3[nH]ccc23)CC12CC2 [Example 26, 7-(7H-Pyrrolo[2,3-d]pyrimidin-4-yl)-4,7-diaza-spiro[2.5]octane-4-sulfonic acid methyl-(2-pyrrol-1-yl-ethyl)-amide] | < 100 nM | < 100 nM | < 100 nM | < 100 nM |
| CN(CC1CCN(C(=O)C(O)CO)C1)S(=O)(=O)N1CCN(c2ncnc3[nH]ccc23)CC12CC2 (centres unmarked) [Example 127, N-[[1-(2,3-dihydroxypropanoyl)pyrrolidin-3-yl]methyl]-N-methyl-5-(7H-pyrrolo[2,3-d]pyrimidin-4-yl)-5,8-diazaspiro[2.5]octane-8-sulfonamide] | < 100 nM | < 100 nM | 100 to 500 nM | > 500 nM |
| CN(CC1CCCCC1)S(=O)(=O)N1CCN(c2ncnc3[nH]ccc23)CC12CC2 [Example 15, 7-(7H-Pyrrolo[2,3-d]pyrimidin-4-yl)-4,7-diaza-spiro[2.5]octane-4-sulfonic acid cyclohexylmethyl-methyl-amide] | < 100 nM | < 100 nM | < 100 nM | 100 to 500 nM |
| CN(CC1CCCN(C(=O)CCO)C1)S(=O)(=O)N1CCN(c2ncnc3[nH]ccc23)CC12CC2 (centres unmarked) [Example 154, N-[[1-(3-hydroxypropanoyl)-3-piperidyl]methyl]-N-methyl-5-(7H-pyrrolo[2,3-d]pyrimidin-4-yl)-5,8-diazaspiro[2.5]octane-8-sulfonamide] | < 100 nM | < 100 nM | < 100 nM | 100 to 500 nM |
| CN(C[C@H]1CCCN1C(=O)C(O)CO)S(=O)(=O)N1CCN(c2ncnc3[nH]ccc23)CC12CC2 (stereo partly drawn) [Example 186, N-[[(2R)-1-(2,3-dihydroxypropanoyl)pyrrolidin-2-yl]methyl]-N-methyl-5-(7H-pyrrolo[2,3-d]pyrimidin-4-yl)-5,8-diazaspiro[2.5]octane-8-sulfonamide] | < 100 nM | < 100 nM | < 100 nM | < 100 nM |
| O=S1(=O)CCC(CN(CCO)S(=O)(=O)N2CCN(c3ncnc4[nH]ccc34)CC23CC3)C1 (centres unmarked) [Example 167, N-[(1,1-dioxothiolan-3-yl)methyl]-N-(2-hydroxyethyl)-5-(7H-pyrrolo[2,3-d]pyrimidin-4-yl)-5,8-diazaspiro[2.5]octane-8-sulfonamide] | < 100 nM | < 100 nM | < 100 nM | 100 to 500 nM |
| CN(CCC1CCCC1)S(=O)(=O)N1CCN(c2ncnc3[nH]ccc23)CC12CC2 [Example 74, N-(2-cyclopentylethyl)-N-methyl-5-(7H-pyrrolo[2,3-d]pyrimidin-4-yl)-5,8-diazaspiro[2.5]octane-8-sulfonamide] | < 100 nM | < 100 nM | 100 to 500 nM | 100 to 500 nM |

Other lines, results leading:

| EC50 [1] | EC50 [2] | EC50 [3] | EC50 [4] | Compound |
| --- | --- | --- | --- | --- |
| < 100 nM | < 100 nM | < 100 nM | 100 to 500 nM | O=S(=O)(N(CCO)CCO)N1CCN(c2ncnc3[nH]ccc23)CC12CC2 [Example 54, 7-(7H-Pyrrolo[2,3-d]pyrimidin-4-yl)-4,7-diaza-spiro[2.5]octane-4-sulfonic acid bis-(2-hydroxy-ethyl)-amide] |
| < 100 nM | < 100 nM | 100 to 500 nM | > 500 nM | CCCN(CCc1ccccc1)S(=O)(=O)N1CCN(c2ncnc3[nH]ccc23)CC12CC2 [Example 7, 7-(7H-Pyrrolo[2,3-d]pyrimidin-4-yl)-4,7-diaza-spiro[2.5]octane-4-sulfonic acid phenethyl-propyl-amide] |
| < 100 nM | < 100 nM | < 100 nM | 100 to 500 nM | CN(CC1CCS(=O)(=O)C1)S(=O)(=O)N1CCN(c2ncnc3[nH]ccc23)CC12CC2 (centres unmarked) [Example 165, N-[(1,1-dioxothiolan-3-yl)methyl]-N-methyl-5-(7H-pyrrolo[2,3-d]pyrimidin-4-yl)-5,8-diazaspiro[2.5]octane-8-sulfonamide] |
| 100 to 500 nM | 100 to 500 nM | > 500 nM | > 500 nM | CN(C[C@H]1CCCN1)S(=O)(=O)N1CCN(c2ncnc3[nH]ccc23)CC12CC2 [Int 51] |
| < 100 nM | < 100 nM | < 100 nM | 100 to 500 nM | CN(C1COC1)S(=O)(=O)N1CCN(c2ncnc3[nH]ccc23)CC12CC2 [Example 112, N-methyl-N-(oxetan-3-yl)-5-(7H-pyrrolo[2,3-d]pyrimidin-4-yl)-5,8-diazaspiro[2.5]octane-8-sulfonamide] |
| < 100 nM | < 100 nM | < 100 nM | < 100 nM | CN(CCc1cccc(F)c1)S(=O)(=O)N1CCN(c2ncnc3[nH]ccc23)CC12CC2 [Example 17, 7-(7H-Pyrrolo[2,3-d]pyrimidin-4-yl)-4,7-diaza-spiro[2.5]octane-4-sulfonic acid [2-(3-fluoro-phenyl)-ethyl]-methyl-amide] |
| < 100 nM | < 100 nM | < 100 nM | 100 to 500 nM | CC(C#N)N(C1CCC1)S(=O)(=O)N1CCN(c2ncnc3[nH]ccc23)CC12CC2 (centres unmarked) [Example 107, N-(1-cyanoethyl)-N-cyclobutyl-5-(7H-pyrrolo[2,3-d]pyrimidin-4-yl)-5,8-diazaspiro[2.5]octane-8-sulfonamide] |
| < 100 nM | < 100 nM | 100 to 500 nM | > 500 nM | CN(C(=O)C1CCCS(=O)(=O)C1)S(=O)(=O)N1CCN(c2ncnc3[nH]ccc23)CC12CC2 (centres unmarked) [Example 140, N-methyl-1,1-dioxo-N-[[5-(7H-pyrrolo[2,3-d]pyrimidin-4-yl)-5,8-diazaspiro[2.5]octan-8-yl]sulfonyl]thiane-3-carboxamide] |
| < 100 nM | < 100 nM | < 100 nM | < 100 nM | N#CCN(C1CCC1)S(=O)(=O)N1CCN(c2ncnc3[nH]ccc23)CC12CC2 [Example 100, N-(cyanomethyl)-N-cyclobutyl-5-(7H-pyrrolo[2,3-d]pyrimidin-4-yl)-5,8-diazaspiro[2.5]octane-8-sulfonamide] |
| < 100 nM | < 100 nM | < 100 nM | 100 to 500 nM | CN(Cc1ccccc1)S(=O)(=O)N1CCN(c2ncnc3[nH]ccc23)CC12CC2 [Example 52, 7-(7H-Pyrrolo[2,3-d]pyrimidin-4-yl)-4,7-diaza-spiro[2.5]octane-4-sulfonic acid benzyl-methyl-amide] |
